Test results taken from ChEMBL document CHEMBL3885861, “Open TG-GATES”.

Species: Rattus norvegicus
Experiment: Open TG-GATES - Regimen: Daily Repeat
Type: toxicity, organism-based, Sprague-Dawley
Parameters: regimen Daily Repeat, gender Male, age 6 weeks
Details: in vivo, po, 0 mg/kg, route gavage, dose level Control; for APTT / Bas / Eos / Fbg / Hb / Ht / Lym / MCH / MCHC / MCV / Mono / Neu / PT / Plat / RBC / Ret / WBC: tissue Blood; for KIDNEY_L / KIDNEY_R / KIDNEY_TOTAL: tissue Kidney; for LIVER: tissue Liver; for A/G / ALP / ALT / AST / BUN / CRE / Ca / Cl / DBIL / GLC / IP / K / LDH / Na / PL / RALB / TBIL / TC / TG / TP / gamma-GTP: tissue Plasma

Question: What does the source list for `CCOc1ccc(NC(=O)CC(C)O)cc1` (configuration not stated) [BUCETIN]?
Answer: TERMINAL_BW (72 h, time 3 day): 249.6 g; APTT (72 h, time 3 day): 17.8 s; Bas (72 h, time 3 day): 0%; Eos (72 h, time 3 day): 1%; Fbg (72 h, time 3 day): 305.2 mg/dL; Hb (72 h, time 3 day): 13.4 g/dL; Ht (72 h, time 3 day): 40.2%; Lym (72 h, time 3 day): 73.4%; MCH (72 h, time 3 day): 21.3 pg; MCHC (72 h, time 3 day): 33.3%; MCV (72 h, time 3 day): 64.1 fL; Mono (72 h, time 3 day): 3%; Neu (72 h, time 3 day): 22%; PT (72 h, time 3 day): 14 s; Plat (72 h, time 3 day): 120.3 x10_4/uL; RBC (72 h, time 3 day): 627 x10_4/ul; Ret (72 h, time 3 day): 7.2%; WBC (72 h, time 3 day): 91.6 x10_2/uL; KIDNEY_L (72 h, time 3 day): 1.1 g; KIDNEY_R (72 h, time 3 day): 1.1 g; KIDNEY_TOTAL (72 h, time 3 day): 2.1 g; LIVER (72 h, time 3 day): 11.9 g; A/G (72 h, time 3 day): 0.8; ALP (72 h, time 3 day): 1726.4 IU/L; ALT (72 h, time 3 day): 33.8 IU/L; AST (72 h, time 3 day): 66.8 IU/L; BUN (72 h, time 3 day): 14.8 mg/dL; CRE (72 h, time 3 day): 0.2 mg/dL; Ca (72 h, time 3 day): 11 mg/dL; Cl (72 h, time 3 day): 105.4 meq/L; DBIL (72 h, time 3 day): 0.02 mg/dL; GLC (72 h, time 3 day): 179 mg/dL; IP (72 h, time 3 day): 7.5 mg/dL; K (72 h, time 3 day): 4.1 meq/L; LDH (72 h, time 3 day): 67.2 IU/L; Na (72 h, time 3 day): 144 meq/L; PL (72 h, time 3 day): 165.2 mg/dL; RALB (72 h, time 3 day): 2.7 g/dL; TBIL (72 h, time 3 day): 0.048 mg/dL; TC (72 h, time 3 day): 82.4 mg/dL; TG (72 h, time 3 day): 104.6 mg/dL; TP (72 h, time 3 day): 5.9 g/dL; gamma-GTP (72 h, time 3 day): 1.2 IU/L; TERMINAL_BW ([…], time 7 day): 287 g; TERMINAL_BW ([…], time 14 day): 375 g; TERMINAL_BW ([…], time 28 day): 420.9 g; APTT ([…], time 7 day): 16.5 s; Bas ([…], time 7 day): 0%; Eos ([…], time 7 day): 1.2%; Fbg ([…], time 7 day): 262.4 mg/dL; Hb ([…], time 7 day): 13.5 g/dL; Ht ([…], time 7 day): 40%; Lym ([…], time 7 day): 81.2%; MCH ([…], time 7 day): 20.7 pg; MCHC ([…], time 7 day): 33.7%; MCV ([…], time 7 day): 61.5 fL; Mono ([…], time 7 day): 2.6%; Neu ([…], time 7 day): 14.4%; PT ([…], time 7 day): 13.9 s; Plat ([…], time 7 day): 112.2 x10_4/uL; RBC ([…], time 7 day): 651 x10_4/ul; Ret ([…], time 7 day): 6.3%; WBC ([…], time 7 day): 93.2 x10_2/uL; APTT ([…], time 14 day): 17.7 s; Bas ([…], time 14 day): 0.2%; Eos ([…], time 14 day): 1%; Fbg ([…], time 14 day): 321.4 mg/dL; Hb ([…], time 14 day): 14 g/dL; Ht ([…], time 14 day): 41.7%; Lym ([…], time 14 day): 75.8%; MCH ([…], time 14 day): 20.2 pg; MCHC ([…], time 14 day): 33.6%; MCV ([…], time 14 day): 60.2 fL; Mono ([…], time 14 day): 2.4%; Neu ([…], time 14 day): 20.4%; PT ([…], time 14 day): 13.8 s; Plat ([…], time 14 day): 127.4 x10_4/uL; RBC ([…], time 14 day): 694 x10_4/ul; Ret ([…], time 14 day): 4.6%; WBC ([…], time 14 day): 121.6 x10_2/uL; APTT ([…], time 28 day): 18.6 s; Bas ([…], time 28 day): 0.2%; Eos ([…], time 28 day): 1.2%; Fbg ([…], time 28 day): 296.4 mg/dL; Hb ([…], time 28 day): 15.3 g/dL; Ht ([…], time 28 day): 44%; Lym ([…], time 28 day): 79.4%; MCH ([…], time 28 day): 19.7 pg; MCHC ([…], time 28 day): 34.9%; MCV ([…], time 28 day): 56.5 fL; Mono ([…], time 28 day): 2.2%; Neu ([…], time 28 day): 16.6%; PT ([…], time 28 day): 13.9 s; Plat ([…], time 28 day): 99.2 x10_4/uL; RBC ([…], time 28 day): 778.4 x10_4/ul; Ret ([…], time 28 day): 2.7%; WBC ([…], time 28 day): 100.2 x10_2/uL; KIDNEY_L ([…], time 7 day): 1.2 g; KIDNEY_R ([…], time 7 day): 1.1 g; KIDNEY_TOTAL ([…], time 7 day): 2.3 g; KIDNEY_L ([…], time 14 day): 1.5 g; KIDNEY_R ([…], time 14 day): 1.3 g; KIDNEY_TOTAL ([…], time 14 day): 2.8 g; KIDNEY_L ([…], time 28 day): 1.4 g; KIDNEY_R ([…], time 28 day): 1.4 g; KIDNEY_TOTAL ([…], time 28 day): 2.9 g; LIVER ([…], time 7 day): 13.2 g; LIVER ([…], time 14 day): 17.3 g; LIVER ([…], time 28 day): 16.3 g; A/G ([…], time 7 day): 0.8; ALP ([…], time 7 day): 1795.8 IU/L; ALT ([…], time 7 day): 32.2 IU/L; AST ([…], time 7 day): 65.6 IU/L; BUN ([…], time 7 day): 15.4 mg/dL; CRE ([…], time 7 day): 0.2 mg/dL; Ca ([…], time 7 day): 11 mg/dL; Cl ([…], time 7 day): 105.2 meq/L; DBIL ([…], time 7 day): 0.018 mg/dL; GLC ([…], time 7 day): 185 mg/dL; IP ([…], time 7 day): 7.3 mg/dL; K ([…], time 7 day): 4 meq/L; LDH ([…], time 7 day): 95.2 IU/L; Na ([…], time 7 day): 142.6 meq/L; PL ([…], time 7 day): 166.6 mg/dL; RALB ([…], time 7 day): 2.6 g/dL; TBIL ([…], time 7 day): 0.038 mg/dL; TC ([…], time 7 day): 77.8 mg/dL; TG ([…], time 7 day): 144 mg/dL; TP ([…], time 7 day): 5.8 g/dL; gamma-GTP ([…], time 7 day): 1 IU/L; A/G ([…], time 14 day): 0.8; ALP ([…], time 14 day): 1354.4 IU/L; ALT ([…], time 14 day): 33 IU/L; AST ([…], time 14 day): 60.8 IU/L; BUN ([…], time 14 day): 16 mg/dL; CRE ([…], time 14 day): 0.2 mg/dL; Ca ([…], time 14 day): 11.1 mg/dL; Cl ([…], time 14 day): 104.4 meq/L; DBIL ([…], time 14 day): 0.02 mg/dL; GLC ([…], time 14 day): 188.8 mg/dL; IP ([…], time 14 day): 7.4 mg/dL; K ([…], time 14 day): 3.9 meq/L; LDH ([…], time 14 day): 97.4 IU/L; Na ([…], time 14 day): 144.8 meq/L; PL ([…], time 14 day): 170.2 mg/dL; RALB ([…], time 14 day): 2.8 g/dL; TBIL ([…], time 14 day): 0.05 mg/dL; TC ([…], time 14 day): 81 mg/dL; TG ([…], time 14 day): 160.8 mg/dL; TP ([…], time 14 day): 6.3 g/dL; gamma-GTP ([…], time 14 day): 1.2 IU/L; A/G ([…], time 28 day): 0.8; ALP ([…], time 28 day): 1201 IU/L; ALT ([…], time 28 day): 30.8 IU/L; AST ([…], time 28 day): 62.4 IU/L; BUN ([…], time 28 day): 15.2 mg/dL; CRE ([…], time 28 day): 0.3 mg/dL; Ca ([…], time 28 day): 11 mg/dL; Cl ([…], time 28 day): 105.8 meq/L; DBIL ([…], time 28 day): 0.022 mg/dL; GLC ([…], time 28 day): 188.6 mg/dL; IP ([…], time 28 day): 5.8 mg/dL; K ([…], time 28 day): 3.9 meq/L; LDH ([…], time 28 day): 69.6 IU/L; Na ([…], time 28 day): 145.4 meq/L; PL ([…], time 28 day): 146.2 mg/dL; RALB ([…], time 28 day): 2.8 g/dL; TBIL ([…], time 28 day): 0.058 mg/dL; TC ([…], time 28 day): 65.4 mg/dL; TG ([…], time 28 day): 155.6 mg/dL; TP ([…], time 28 day): 6.3 g/dL; gamma-GTP ([…], time 28 day): 2 IU/L
